Values quoted from earlier work in patent US5629431A, “Inhibitors of retroviral proteases” (Hoechst Aktiengesellschaft, priority 1989, dated 1997).
Square brackets hold non-standard residues; d marks the D form. Peptide text beside a SMILES is read from it. * marks the point of attachment. Sta = CC(C)C[C@H](N)[C@@H](O)CC(=O)O; Isovaleryl = CC(C)CC(=O)*

Columns and labels:
HIV protease = settings: literature value (Katoh et al., Nature 329, 1987); read-out: IC50 against HIV protease
[1] = system: formation of the nuclear protein p24 and activity of reverse transcriptase; settings: high doses; in the biosynthesis (v. d. Helm et al., FEBS Lett. 247, 1989)

SMILES: CC(C)CC(=O)N[C@H](C(=O)N[C@H](C(=O)N[C@@H](CC(C)C)[C@@H](O)CC(=O)N[C@@H](C)C(=O)N[C@@H](CC(C)C)[C@@H](O)CC(=O)O)C(C)C)C(C)C [pepstatin A] (Isovaleryl-VV[Sta]A[Sta]-OH)
- activity of reverse transcriptase [1]: reduction
- formation of the nuclear protein p24 [1]: reduction
